These results are taken from a melting point compilation (Tetko et al.).

Compound `O=C1C=CC(=O)N1c1ccc(N2C(=O)C=CC2=O)cc1` came in with a melting point of 300 °C.
With `Cc1cc(C(=O)CCl)c(C)n1-c1ccc(Cl)cc1` the figure was 88 to 89 °C; with `Cc1c(C=O)cnn1-c1ccccc1`, 76 to 77 °C; with `C=COC=C`, -101 °C.
Compound `CCc1cccc(C)c1N(COC(C)C)C(=O)CCl` yielded a melting point of 21.6 °C.
Regarding `NC(=O)NN=CC(=O)c1ccc(C(=O)C=NNC(N)=O)cc1`, the melting point is 246 °C.
In turn, `CCCCCCCCCCCCCCCC=O` showed a melting point of 35 °C.
Regarding `O=C(Cl)N1c2ccccc2Sc2ccccc21`, the melting point lay within 168 to 172 °C.
Then `FC(F)(F)c1cccc(Cl)c1`, with -56 °C; and `CNc1ncc(C(F)(F)F)cc1[N+](=O)[O-]`, with 98 to 100 °C; and `CC1(C)CC(=O)C(Cl)C(=O)C1`, with 163 °C.
With `COc1ccc(-n2ncc(C=O)c2C)cc1` the figure was 80 to 82 °C; with `COc1ccc(C(=O)c2noc(-c3ccc([N+](=O)[O-])cc3)c2S(=O)(=O)c2ccccc2)cc1`, 176 °C.
As to `CCOC(=O)C(Br)C(=O)OCC`, the melting point is -54 °C.
With `Cc1cccc(C(N)=NO)c1` the figure was 143 to 146 °C; with `CC1(c2ccccc2)CC(C(=NOC(=O)Cc2ccccc2)c2cc3ccccc3o2)C1` (stereo unspecified), 144 to 145 °C; with `NNC(=O)COc1ccc([N+](=O)[O-])cc1`, 189 °C.
Then `Cn1ncc2c(Cl)ncnc21`, with 97 to 100 °C; and `CC(CCc1ccccc1)NCC(O)c1ccc(O)c(C(N)=O)c1` (stereo unspecified), with 190 °C; and `CNC1=CC(=O)C2(C)CCC1C2(C)C` (stereo unspecified), with 195 °C.
With `Cc1nnc(S)n1-c1ccc(OCc2ccccc2)cc1` the figure was 255 to 257 °C; with `Cc1cc(C)c(C2(C)CC(C(=NO)c3cc4cc(Br)ccc4o3)C2)c(C)c1` (stereo unspecified), 221 to 222 °C; with `CC(=O)CO`, -17 °C.
In the case of `CC(=O)Nc1ccc(/C(=C\c2ccccc2NC(C)=O)C(=O)O)cc1`, the melting point turned out to be 240 °C.
With `OC1CCN(Cc2ccccc2)CC1` the figure was 62 °C.
Then `NC(=O)c1cccc(C(F)(F)F)c1F`, with 96 °C.
Then `Oc1c(Br)cc(F)cc1Br`, with 55 °C; and `O=CC1=C(Cl)c2cc(F)ccc2OC1`, with 84 to 86 °C.
Turning to `CCCCCCCCCCC(C)Br` (stereo unspecified), the melting point is -96 °C.
Regarding `C=CC(Cl)CCl` (stereo unspecified), the melting point was -61 °C.
With `O=C(c1cccc(F)c1)c1cccc(F)c1` the figure was 59 °C; with `NC(=S)c1csc2ccccc12`, 121 to 124 °C; with `CCOC(=O)C(C(N)=S)=C1NN=C(c2ccc(Cl)cc2)O1`, 174 to 177 °C.
With `N=C1NC(=O)C(=NNc2ccccc2)S1` the figure was 210 °C; with `Cc1cccc2c1-c1nc3ccccc3nc1-2`, 134 to 136 °C; with `CNC(=O)Cc1ccccc1`, 55 to 59 °C.
Then `COC(=O)C1C(=O)C(C(=O)OC)C2c3ccccc3C1C(C(=O)OC)C(O)C2C(=O)OC` (stereo unspecified), with 92.2 °C; and `CC/C(=N\O)C1=CC2(C)CCC1C2(C)C` (stereo unspecified), with 107 °C.
Regarding `Cc1ccc(CC(=O)Nc2ccc(C)cc2)cc1`, the melting point came out at 163 °C.
With `CCCCCCCNCCCCCCC` the figure was 31.5 °C.
`Cc1cc(C)c2cc(C)ccc2c1` yielded a melting point of 12 °C.
Then `Nc1ccc(N)nc1`, with 110 °C; and `c1ncncn1`, with 86 °C.
Then `CC(C=Cc1ccccc1)c1ccccc1` (stereo unspecified), with 47.5 °C.
Then `C=COCCCC`, with -92 °C.
`CC(=O)Nc1cc(F)ccc1C(=O)O` returned a melting point of 212 to 216 °C.
Then `CBr`, with -93.7 °C.
Consider `CCC(C)Br` (stereo unspecified), for which the melting point was -112 °C.
With `COC(=O)c1cc(Br)c(Br)s1` the figure was 79 °C; with `OCC(CO)(CO)CBr`, 76 °C.
With `O=C(ON1C(=O)CCC1=O)ON1C(=O)CCC1=O` the figure was 190 °C; with `O=C(O)c1ccc(Cl)cc1O`, 210 °C.
With `COC(=O)CCC(C)C1CCC2C3C(OC(C)=O)CC4CC(=O)CCC4(C)C3CC(=O)C12C` (stereo unspecified) the figure was 165 to 167 °C; with `COc1ccc(C(=O)c2ccc(Cl)cc2Cl)cc1OC`, 128 °C.
For `FC(F)(F)CCBr`, the melting point is < 25 °C.
`CC12CCC(C=C/C1=N\O)C2(C)C` (stereo unspecified) yielded a melting point of 145 to 146 °C.
Then `CCC(=Cc1ccccc1)[N+](=O)[O-]`, with 90.5 °C.
`CC1Cc2ccccc2N1NC(=O)c1ccc(Cl)c(S(N)(=O)=O)c1` (stereo unspecified) registered a melting point of 161 °C.
Then `CCCCC(CC)COC(=O)CCCCCCCCC(=O)OCC(CC)CCCC` (stereo unspecified), with -48 °C; and `CC(C)CSCC(C)C`, with -106 °C.
With `CCOC(=O)CNc1nc(Cl)nc(NC(C)C)n1` the figure was 110 °C; with `CN1C2CCC1C(C(=O)O)C(O)C2` (stereo unspecified), 205 °C.
Then `COc1cc(/C=N/c2ccccc2)ccc1O`, with 140 °C; and `COc1ccc2c(CBr)cc(=O)oc2c1`, with 212 to 217 °C; and `Fc1ccc(I)cc1`, with -20 °C.
The compound `CC(C)NCC(O)c1ccc2ccccc2c1` (stereo unspecified) returned a melting point of 108 °C.
Then `CCCCCCCCCCCCCC(=O)CC`, with 43 °C.
With `ON=Cc1ccc2c(Br)cccc2c1` the figure was 178 °C; with `O=C(O)Cc1coc2ccccc12`, 90 to 93 °C.
Then `Cc1nc(-c2ccccn2)nc(Cl)c1Cl`, with 127 to 129 °C.
Consider `CCOC(=O)c1c(NC(=O)Nc2cccc(Cl)c2)sc2c1CCCC2`, for which the melting point was 164 to 165 °C.
`CCCCCCC(O)CC=CCCCCCCCC(=O)O` (stereo unspecified) yielded a melting point of 5.5 °C.
On to `C1CCCC2OC2CC1` (stereo unspecified), for which the melting point was 53 to 56 °C.
Then `Cc1cnc(C(=O)O)c[n+]1[O-]`, with 178 °C.
With `O=c1[nH]c2scc(-c3ccccc3)c2c(=O)n1-c1cccc(C(F)(F)F)c1` the figure was 231 to 233 °C.
With `O=C(O)c1cc(=O)[nH]c(=O)[nH]1` the figure was 345 °C.
In the case of `Nc1nn2c(-c3ccccc3)cc(=O)[nH]c2c1/N=N/c1c(Br)cc(Br)cc1Br`, the melting point amounted to 316 °C.
Take `Cc1ccc(-n2c(=O)cc(C)n2C)cc1`: the melting point is 130 to 137 °C.
With `C[N+](C)(C)CCOP(=O)([O-])OCC(O)CO` (stereo unspecified) the figure was 142 °C; with `Cc1ccccc1CN`, -30 °C.
With `CCOC(=O)c1c(SC)n[nH]c1N` the figure was 142 to 143 °C; with `O=C(O)[C@H]1COCN1C(=O)OCc1ccccc1`, 70 to 74 °C; with `CCCCCCCCCCCC(C)C`, -25 °C.
Then `O=C1NC(=S)NC(=O)C1=NNc1ccc(Cl)cc1`, with 300 °C.
The compound `Nc1nc(NC2CC2)c2ncn(C3C=CC(CO)C3)c2n1` (stereo unspecified) yielded a melting point of 165 °C.
With `O=[N+]([O-])c1ccc(OC2OC(CO)C(O)C(O)C2O)cc1` (stereo unspecified) the figure was 211 °C; with `Cc1n[nH]cc1[N+](=O)[O-]`, 133 °C; with `COc1ccc(N/N=C(/C#N)c2nc(-c3ccc(C)cc3)cs2)cc1`, 145 °C.
Then `O=C(O)CN(CC(=O)O)c1ccccc1OCCOc1ccccc1N(CC(=O)O)CC(=O)O`, with 177 to 179 °C; and `O=Cc1cc(Cl)cc(Cl)c1[N+](=O)[O-]`, with 91 °C.
Then `CC(=O)N=c1sc(S(N)(=O)=O)nn1C`, with 214 °C; and `Nc1cccc2c(O)cccc12`, with 189 °C; and `O=C(O)c1cnc2ccccc2c1`, with 277 to 283 °C.
As to `CCOC(=O)c1c(N)sc2c1CCN(C(=O)OC(C)(C)C)C2`, the melting point came to 153 °C.
Regarding `CC(C)c1ccncc1`, the melting point was -54.9 °C.
In turn, `CNc1c(F)c(F)c(-c2c(F)c(F)c(F)c(F)c2F)c(F)c1F` showed a melting point of 72 °C.
Then `CSC(=NC#N)SC`, with 54 °C; and `COc1ccc2[nH]cc(CCNC(C)=O)c2c1`, with 117 °C.
With `Cc1cncc(N2CCC(C(=O)O)CC2)n1` the figure was 151 to 152 °C; with `CO[C@](C(=O)O)(c1ccccc1)C(F)(F)F`, 44 °C; with `Cc1nn(C)c(Cl)c1C(=O)O`, 195 to 198 °C.
Then `ClCc1ccccc1Cn1cncn1`, with 52 to 57 °C; and `Nc1ccc(C(=O)O)cc1O`, with 211 to 215 °C.
Compound `O=C(CBr)c1ccc2c(c1)OCCO2` displayed a melting point of 115 to 116 °C.
With `COC(=O)c1cnc(SC)nc1` the figure was 96 to 97 °C.
Compound `Cc1c(I)ccnc1Cl` showed a melting point of 107 °C.
Then `CCOC(=O)c1c(-c2ccc(-c3ccccc3)cc2)csc1N`, with 155 to 157 °C; and `O=C(O)c1ccccc1-c1cccs1`, with 92 to 95 °C.
With `O=c1nc(SCc2ccc(Cl)cc2)c2c([nH]1)CCCC2` the figure was 287 to 289 °C; with `COc1ccc(C=C(CC(=O)O)C(=O)O)cc1`, 186 to 188 °C; with `COc1ccc(-c2onc(C(=O)c3ccc(Br)cc3)c2S(=O)(=O)c2ccccc2)cc1`, 140 °C.
With `O=C1NC(=S)NC(=O)C1=NNc1ccc(Br)cc1` the figure was 268 °C; with `Nc1cc(Cl)cnc1Cl`, 124 to 125 °C; with `C#CCOC(=O)C(C)Oc1ccc(Oc2ncc(Cl)cc2F)cc1` (stereo unspecified), 59.5 °C.
On to `ClCCC(Cl)Cl`, for which the melting point was -59 °C.
With `CC12CCC(C(=CC(Cc3ccccc3)C(=O)O)C1=O)C2(C)C` (stereo unspecified) the figure was 127 °C.
